The values that follow come from patent US6953577B2, “Human methionine aminopeptidase type 3” (Pharmacia Corporation, priority 1999, dated 2005).

For series [1], the target named is T1, recombinant human MetAP-3 (Homo sapiens, UniProt Q6UB28).
T1 construct: The coding region of hMetAP-3 was also cloned into the EcoRI/HindIII sites of the pET43a vector and expressed as a fusion protein; NusA (N, cleaved yes); 6xHis (N, cleaved yes); made in house; host or cells: E. coli Tuner (DE3)plysS, pET43a
As to the kind of experiment: Methionine aminopeptidase activity assay (methionine release from tripeptide, coupled L-amino acid oxidase/Amplex Red). The class given is biochemical. Particulars: for Cleaved / Vmax: tripeptide as substrate of recombinant human MetAP-3. The protocol: (§1) Hydrogen peroxide, produced by the L-amino acid oxidase reaction, was measured by monitoring the formation of resorufin from Amplex Red in a reaction catalyzed by of horseradish peroxidase. […] The reaction was performed in a 96-well plate format at ambient temperature using the following assay buffer: 20 mM HEPES-Na pH 7.5, 100 mM NaCl, 0.1 mM CoCl2 containing 100 μM Amplex Red, 0.15 U/ml L-amino acid oxidase, 0.5 U/ml horseradish peroxidase.
(§2) The ability of fumagillin to inhibit each of the recombinant human MetAPs was determined by adding 0.6 nM-500 μM fumagillin at the start of the reaction. The IC50 values were determined under conditions in which enzyme concentration and reaction time were linear.

Series [2] concerns endothelial cell proliferation. The following applies: cited from earlier work.
The target in series [3] is T2, MetAP-2 (Homo sapiens, UniProt P50579). Particulars: cited from earlier work.
Target sequence in this assay (P50579 whole entry, species assumed): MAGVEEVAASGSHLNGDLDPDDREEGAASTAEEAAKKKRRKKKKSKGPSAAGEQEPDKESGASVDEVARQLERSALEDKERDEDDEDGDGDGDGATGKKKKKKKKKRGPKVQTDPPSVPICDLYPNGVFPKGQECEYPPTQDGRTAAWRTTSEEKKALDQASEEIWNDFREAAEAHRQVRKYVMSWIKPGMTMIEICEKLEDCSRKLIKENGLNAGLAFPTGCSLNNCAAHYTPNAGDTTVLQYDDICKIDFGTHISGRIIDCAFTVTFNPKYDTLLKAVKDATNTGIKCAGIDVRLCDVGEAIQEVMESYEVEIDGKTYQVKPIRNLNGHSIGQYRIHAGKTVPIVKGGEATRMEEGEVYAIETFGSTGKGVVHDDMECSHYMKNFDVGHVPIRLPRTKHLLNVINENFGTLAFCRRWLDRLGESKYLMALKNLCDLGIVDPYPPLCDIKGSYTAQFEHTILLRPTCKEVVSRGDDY
The conditions of series [4]: in vivo, cited from earlier work.
For the next series, the target named is type-1 enzyme (MetAP-1) (Homo sapiens, UniProt P53582). Particulars: cited from earlier work.
In series [5] the target is T2, MetAP-2. As to the kind of experiment: Methionine aminopeptidase activity assay (methionine release from tripeptide, coupled L-amino acid oxidase/Amplex Red). The protocol: as §1, §2
Target sequence in this assay (P50579 whole entry): as the sequence (P50579 whole entry, species assumed) above
In series [6] the target is recombinant human MetAP-1 (Homo sapiens, UniProt P53582). The series is described as above. The protocol: as §1, §2

T1 sequence (Q6UB28 20-335): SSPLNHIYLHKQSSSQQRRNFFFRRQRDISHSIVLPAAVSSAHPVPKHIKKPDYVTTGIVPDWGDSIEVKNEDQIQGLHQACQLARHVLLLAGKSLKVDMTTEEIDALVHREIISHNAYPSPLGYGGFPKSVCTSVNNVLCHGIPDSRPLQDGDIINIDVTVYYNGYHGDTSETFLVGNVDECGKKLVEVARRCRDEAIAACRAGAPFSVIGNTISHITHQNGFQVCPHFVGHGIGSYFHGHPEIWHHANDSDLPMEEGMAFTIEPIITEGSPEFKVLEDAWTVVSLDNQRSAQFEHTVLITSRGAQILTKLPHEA

On to “MEG: synthesized tripeptide evaluated as substrate for MetAP-3”, for which, in series [1], the Cleaved entry was “cannot cleave and No”; the Vmax turned out to be 1.1 Abs × 1000/min.
Regarding “GGG: synthesized tripeptide evaluated as substrate for MetAP-3”, in series [1], the Cleaved result was “No” and the Vmax worked out at 0.7 Abs × 1000/min.
`CO[C@@H]1[C@H](OC(=O)NC(=O)CCl)CC[C@]2(CO2)[C@H]1[C@@]1(C)O[C@@H]1CC=C(C)C` [TNP-470]: the “Potency relative to fumagillin” value in series [2] is given as 50 fold. In addition, the “Binding and inhibition of MetAP-2 (in words)” value at MetAP-2 [3] was “irreversibly bind and potently inhibit”. In addition, in series [4] (po), the “Oral availability (in words)” value was “lack of oral availability”. Also, the “Toxicity (in words)” value in series [4] was “dose-limiting neurotoxicity”. Also, the “Inhibition of type-1 enzyme (in words)” value at type-1 enzyme (MetAP-1) is “but not the type-1 enzyme”.
In the case of “MGG: synthesized tripeptide evaluated as substrate for MetAP-3”, in series [1], the “Activity with MGG relative to MAS as substrate” value was “twice as high”; the Cleaved entry was “cleaved and Yes”; the Vmax was 134 Abs × 1000/min.
With `CO[C@@H]1[C@H](OC(=O)/C=C/C=C/C=C/C=C/C(=O)O)CC[C@]2(CO2)[C@H]1[C@@]1(C)O[C@@H]1CC=C(C)C` [Fumagillin, fumagillin], the “Inhibition of endothelial cell proliferation (in words)” value in series [2] is given as “potent inhibitor of endothelial cell proliferation”. On MetAP-2 [3], the “Binding and inhibition of MetAP-2 (in words)” value was “irreversibly bind and potently inhibit”. In series [1], the “Inhibition of MetAP-3 by fumagillin (in words)” value was “not inhibited by fumagillin”. In addition, the IC50 was above 500 µM in series [1] (read-out: Fumagillin IC50), 0.005 µM against MetAP-2 [5] and 33 µM in series [6]. In addition, on type-1 enzyme (MetAP-1), the “Inhibition of type-1 enzyme (in words)” value is “but not the type-1 enzyme”.
As to `CO[C@@H]1C(=O)CC[C@]2(CO2)[C@@]1(O)[C@@]1(C)O[C@@H]1CC=C(C)C` [ovalicin], the “Inhibition of type-1 enzyme (in words)” value at type-1 enzyme (MetAP-1) is given as “but not the type-1 enzyme”.

One may read the IC50 as the concentration that inhibits the measured activity by half.
